Measured values: US9587002B2, “Sequence of nucleotides and peptides GSE 24.2 of dyskerin, which can induce telomerase activity, method for obtaining same, therapeutic compositions and applications thereof” (CONSEJO SUPERIOR DE INVESTIGACIONES CIENTIFICAS, priority 2005, dated 2017)

B1: Trub II: fragment of GSE 24.2 containing the Trub II domain (SEQ ID NO13, peptide SEQ ID NO14) (nucleic acid, listed as Homo sapiens)
DNA: CACAGTGGTACTCTGGATCCCAAGGTGACTGGTTGTTTAATCGTGTGCATAGAACGAGCCACTCGCTTGGTGAAG
modifications: expressed or natural sequence

How the values were obtained:
[1] = system: 293T cells; experiment: Cell viability of 293T cell lines treated with cisplatin (crystal violet); type: cell-based, human; details: 293T cells stably expressing the construct vs empty vector pLNCX; cisplatin 0-100 μg/ml, 72 hours
Procedure: FIG. 2.—Cell viability and activation of the JNK and p38 death pathways in 293T cell lines: pLNCX and 24.2, treated with cisplatin. A) Cell viability. After seeding the 293T cells: expressing the empty vector (pLNCX) and GSE 24.2 (24.2) in 24-well plates, they were incubated with concentrations between 0-100 μg/ml of cisplatin. The cell viability was measured by means of the crystal violet technique after 72 hours of exposure to the drug. The data represent the mean of two experiments performed in quadruplicate. B) Activation kinetics. Subsequently, the activation of JNK and p38 was studied using antibodies that specifically recognise the active forms. As a load control, the levels of JNK-1 were detected.
FIG. 4.—Viability of the 293T cell lines: pLNCX, 24.2, DSK5′ and DSK treated with cisplatin. The cell lines described above (pLNCX and 24.2), the DSK 5′ cell line, which expresses a fragment of dyskerin described in the preceding figure, and a fourth one that overexpresses the complete cDNA of dyskerin (DSK) have been used. The viability was analyzed as shown in FIG. 1 A. The data represent the mean of two experiments performed in quadruplicate. […]
Growth curves. […] The number of cells was determined by estimating the absorbance at 595 nm. […]

[2] = system: hTERT promoter; experiment: hTERT-luc reporter assay in VA13 cells; type: cell-based; details: co-transfection with hTERT-luc, 24 h
Procedure: FIG. 10.—Telomerase activity and expression levels of hTERT and hTR in the cells of patients with dyskeratosis congenita and in VA13 cells transiently transfected with the 24.2 plasmid or the pLNCX empty vector. A) Telomerase activity measured by means of the TRAP assay in the cells of patients with dyskeratosis congenita (DC-1, DC-2 and DC-3) and in the carrier parent (DC-C) following electroporation of 45 μg of the pLNCX empty plasmid (−) or the pLNCX 24.2 vector (+) by 15 million cells. B) RT-PCR of the RNA from cells of one of the patients with dyskeratosis congenita, DC3 transfected with the empty vector and DC3 transfected with the 24.2 plasmid, using oligos specific for hTERT and hTR. As a starting RNA control, oligos for the amplification of GAPDH were used. C) Telomerase activity in VA13 cells. […] 24 hours later, the telomerase activity was analysed as described above, using dilutions of the protein extracts from each transfection. […] RNA levels were detected as described above. […] After 24 h of transfection, the luciferase activity was analyzed as described above. […]
Luciferase assay. The transcriptional regulation of hTERT was measured by means of the Luciferase reporter gene, preceded by a 3,402-pb sequence of the hTERT promoter. […] The cell lysates were centrifuged and the expression of luciferase was quantified with 10 μg of protein from the supernatant, using a Berthold luminometer. […]

[3] = system: hTERT promoter; experiment: hTERT-luc reporter (luciferase) assay in 293T cells; type: cell-based, human; details: 293T cells transiently transfected with construct vs empty vector; hTERT-luc, 24 hours
Procedure: FIG. 8.—Activity of the hTERT promoter in the 293T cell lines: pLNCX and 24.2 and in 293T cells transiently transfected with the pLNCX-24.2 construct and the pLNCX empty plasmid. A) Both the pLNCX and the 24.2 cells were transiently transfected with 0.25 μg of the hTERT-luc reporter vector. The cells were seeded in 60-mm plates. After 24 hours of transfection, the cells were lysed and the luciferase activity of 10 μg of total protein was quantified. As a transfection control, the cells were co-transfected with a reporter vector, CMV-Renilla. B) The 293T cells were transfected with the pLNCX vector and the 24.2 plasmid (5 μg), and both were co-transfected with 0.25 μg of the hTERT-luc reporter vector. After seeding the cells as in A, they were transfected with pLNCX and 24.2, and co-transfected with the hTERT-luc reporter vector; subsequently, they were treated as in A. As a transfection control, the CMV-Renilla reporter vector was used. The data correspond to the ratio of relative units of luciferase with respect to non-transfected cells. Each point represents the mean±the standard deviation obtained from 3 independent experiments. C) The 293T cells were transfected with the different GSE 24.4, DSK, TRUB I, TRUB II constructs and the pLNCX empty plasmid (5 μg), and co-transfected with 0.25 μg of the hTERT-luc reporter vector. The cells were seeded in 60-mm plates; after 24 hours of transfection, the cells were lysed and the luciferase activity of 10 μg of total protein was quantified. As a transfection control, the cells were co-transfected with a CMV-Renilla reporter vector. The data correspond to the ratio of relative units of luciferase with respect to non-transfected cells. Each point represents the mean±the standard deviation obtained from 3 independent experiments.
FIG. 9.—Activity of the hTERT promoter following treatment with cisplatin. A) Both the pLNCX cell line and the 24.2 cell line were transiently transfected with 0.25 μg of the hTERTIuc reporter vector. After 24 hours of transfection, they were treated with 3 μg/ml of cisplatin for 8 hours. The cells were seeded in 60-mm plates; after 24 hours of transfection and following treatment with cDDP, the cells were lysed and the luciferase activity of 10 μg of total protein was quantified. As a transfection control, the cells were co-transfected with a CMV-Renilla reporter vector. B) 293T cells which, after being transiently transfected with pLNCX and 24.2, were co-transfected with 0.25 μg of the hTERT-luc reporter vector and treated as in A. After seeding the cells as in A, they were transfected with pLNCX and 24.2, and co-transfected with the hTERT-luc reporter vector; subsequently, they were treated as in A. As a transfection control, the CMV-Renilla reporter vector was used. The data correspond to the ratio of relative units of luciferase with respect to non-transfected cells. Each point represents the mean±the standard deviation obtained from 3 independent experiments.
A) The 293T cells were co-transfected with different constructs (10 μg/DNA per million cells) and the hTERT-luc reporter (1 μg per million cells). The specified cell lines were co-transfected with the hTERT-luc reporter and different quantities of the Mad/myc expression vector. (B) The specified cell lines were co-transfected with the HIV-luc reporter and with different quantities of the Mad/myc expression vector. After 24 h of transfection, the cells were stimulated with 50 ng/ml of TNF-α for 6 hours and the luciferase activity was analysed as described above. CMV-Renilla (0.1 μg/ml per million cells) was used as a control for the transfection efficiency. The data represent the mean of two experiments performed in quadruplicate.
The pseudouridine synthase TRUB domain of dyskerin comprises two structural subdomains: the Trub I and II motifs (Zucchini et al., 2003). These two domains are critical to maintain the global protein structure of dyskerin. […]

Molecule	cell viability in response to cisplatin [1]	activity of the hTERT promoter in VA13 cells [2]	activity of the hTERT promoter, transient expression [3]
DSK 5′: construct containing the first 500 nucleotides of human dyskerin, cloned in pLNCX [reference compound]	do not have any activity whatsoever	–	–
Trub I: fragment of GSE 24.2 containing the Trub I domain (SEQ ID NO11, peptide SEQ ID NO12) (DNA GGTTTCATTAATCTTGACAAGCCCTCTAACCCCTCTTCCCATGAGGTGGTAGCC; expressed or natural sequence; listed as Homo sapiens)	–	activated the hTERT promoter	act by activating the expression of the hTERT promoter
B1	–	–	act by activating the expression of the hTERT promoter
